Laboratory results: US20080125463A1, “N-(1-hetarylpiperidin-4-yl)(het)arylamides as EP2 receptor modulators” (priority 2006, published 2008)
Like-named read-outs stand apart in the source and are kept apart here.

How the values were obtained:
[1] = molecular target: T1, human prostaglandin E2 (subtype EP2) receptor (Homo sapiens, UniProt P43116); assay: cAMP antagonism assay (HTRF cAMP detection, in the presence of PGE2); assay type: cell-based
T1 construct: host or cells: cells in a cell culture plate
T1 sequence (P43116 whole entry): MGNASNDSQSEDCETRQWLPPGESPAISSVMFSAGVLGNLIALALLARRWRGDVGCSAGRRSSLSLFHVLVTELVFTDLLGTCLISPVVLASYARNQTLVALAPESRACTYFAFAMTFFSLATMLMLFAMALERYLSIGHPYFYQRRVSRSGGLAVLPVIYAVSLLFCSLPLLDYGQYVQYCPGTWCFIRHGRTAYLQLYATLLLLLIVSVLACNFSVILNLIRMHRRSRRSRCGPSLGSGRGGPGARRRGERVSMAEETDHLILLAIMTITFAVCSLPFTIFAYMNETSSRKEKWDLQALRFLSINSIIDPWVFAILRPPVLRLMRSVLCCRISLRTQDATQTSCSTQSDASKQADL
Experimental: (§1) The binding of PGE2 to the EP2 subtype of the human PGE2 receptor induces activation of membrane-associated adenylate cyclases and leads to the formation of cAMP. In the presence of the phosphodiesterase inhibitor IBMX, cAMP which has accumulated due to this stimulation and been released by cell lysis is employed in a competitive detection method. In this assay, the cAMP in the lysate competes with cAMP-XL665 for binding of an Eu cryptate-labeled anti-cAMP antibody.
(§2) The two signals are measured in a suitable measuring instrument with a time lag, i.e. after the background fluorescence has declined.
(§3) The substance solutions (0.75 μl) containing 30% DMSO are introduced into an assay plate and dissolved in 16 μl of a KRSB+IBMX stimulation solution (1× Krebs-Ringer Bicarbonate Buffer; Sigma-Aldrich #K-4002; including 750 μM 3-isobutyl-1-methylxanthine Sigma-Aldrich #I-7018), and then 15 μl thereof are transferred into a media-free cell culture plate which has been washed with KRSB shortly beforehand.
After preincubation at room temperature (RT) for 30 minutes, 5 μl of a 4×PGE2 solution (11 nM) are added, and incubation is carried out in the presence of the agonist at RT for a further 60 min (volume: ˜20 μl) before the reaction is then stopped by adding 5 μl of lysis buffer and incubated at RT for a further 20 min (volume: ˜25 μl). The cell lysate is then transferred into a measuring plate and measured in accordance with the manufacturer's information (cyclic AMP kit Cisbio International #62AMPPEC).

[2] = molecular target: T1, human prostaglandin E2 (subtype EP2) receptor; assay: cAMP agonism assay (HTRF cAMP detection); assay type: cell-based
Experimental: as §1, §2, §3
After incubation at room temperature (RT; volume: ˜15 μl) for 60 minutes, the reaction is then stopped by adding 5 μl of lysis buffer and incubated at RT for a further 20 min (volume: ˜20 μl). The cell lysate is then transferred into a measuring plate and measured in accordance with the manufacturer's information (cyclic AMP kit Cisbio International #62AMPPEC).

cumulus-oocyte complexes = assay: Cumulus expansion assay in vitro; assay type: cell-based, mice; conditions: competing with PGE2
Experimental: Folliculogenesis is induced in immature female mice (strain: CD1 (ICR) from Charles River) at an age of 14-18 days by a single dose (intraperitoneally) of 10 I.U. of PMSG (Pregnant Mare Serum Gonadotropin; Sigma G-4877, Batch 68H0909). 47-50 hours after the injection, the ovaries are removed and the cumulus-oocyte complexes are removed. The cumulus complex is not yet expanded at this stage.
The cumulus-oocyte complexes are then incubated with prostaglandin E2 (PGE2) (1 μM), vehicle control (ethanol) or test substances for 20-24 hours. Medium: alpha-MEM medium with 0.1 mM IBMX, pyruvates (0.23 mM), glutamines (2 mM), pen/strep (100 IU/ml pen. and 100 μg/ml strep.) and HSA (8 mg/ml). Cumulus expansion is then established through the division into four stages (according to Vanderhyden et al. Dev Biol. 1990 August; 140(2):307-317).

[3] = cAMP antagonism assay, EP2 receptor, in presence of PGE2, read-out: Antagonism [IC50
[4] = cAMP agonism assay, EP2 receptor, read-out: Agonism [ED50

Row | Compound | IC50 [1, 3] [µM] | EC50 [2, 4] [µM] | also measured
1 | N#Cc1ccc2c(N3CCC(NC(=O)c4cccc(Cl)c4Cl)CC3)ccnc2c1 [Example 40, 2,3-Dichloro-N-[1-(7-cyano-quinolin-4-yl)-piperidin-4-yl]-benzamide] | 0.9 | > 19 | 
2 | O=C(NC1CCN(c2ccnc3cc(Cl)ccc23)CC1)c1ccccc1Cl [Example 4, 2-Chloro-N-[1-(7-chloro-quinolin-4-yl)-piperidin-4-yl]-benzamide] | 1 | > 19 | 
3 | O=C(NC1CCN(c2ccnc3cc(C(F)(F)F)ccc23)CC1)c1cccc(Cl)c1Cl [Example 34, 2,3-Dichloro-N-[1-(7-trifluoromethyl-quinolin-4-yl)-piperidin-4-yl]-benzamide] | 0.2 | > 19 | 
4 | O=C(NC1CCN(c2ncnc3cc(Cl)ccc23)CC1)c1cccc(Cl)c1Cl [Example 37, 2,3-Dichloro-N-[1-(7-chloro-quinazolin-4-yl)-piperidin-4-yl]-benzamide] | 0.6 | > 19 | 
5 | O=C(NC1CCN(c2ccnc3c(Cl)cccc23)CC1)c1cccc(Cl)c1Cl [Example 35, 2,3-Dichloro-N-[1-(8-chloro-quinolin-4-yl)-piperidin-4-yl]-benzamide] | 0.1 | > 19 | 
6 | O=C(NC1CCN(c2ccnc3cc(Cl)ccc23)CC1)c1cccc(Cl)c1Cl [Example 25, 2,3-Dichloro-N-[1-(7-chloro-quinolin-4-yl)-piperidin-4-yl)-benzamide] |  | > 19 | IC50 ([1]; antagonism test, read-out: IC50 in the antagonism test): 0.2 µM; EC50 ([2]; cellular agonism test, read-out: EC50 in the cellular agonism test): > 19 µM; suppression of cumulus expansion (cumulus-oocyte complexes; one tenth of the concentration (of 100-200 μM)): ~50%
7 | O=C(NC1CCN(c2ccnc3cc(Cl)ccc23)CC1)c1ccccc1I [Example 10, N-[1-(7-Chloro-quinolin-4-yl)-piperidin-4-yl]-2-iodo-benzamide] | 1.3 |  | 
8 | O=C(NC1CCN(c2ccnc3cc(Br)ccc23)CC1)c1cccc(Cl)c1Cl [Example 36, N-[1-(7-Bromo-quinolin-4-yl)-piperidin-4-yl]-2,3-dichloro-benzamide] | 0.1 | > 19 | 
9 | O=C(NC1CCN(c2ccnc3cc(Cl)ccc23)CC1)c1ccccc1Br [Example 1, 2-Bromo-N-[1-(7-chloro-quinolin-4-yl)-piperidin-4-yl]-benzamide] | 0.6 | > 19 | 
10 | CC(C)Oc1ccc2c(=O)c3cc(C(=O)O)ccc3oc2c1 [AH 6809, reference compound] |  |  | suppression of cumulus expansion (cumulus-oocyte complexes; concentration of 100-200 μM): about 20%
11 | O=C(NC1CCN(c2ccnc3cc(Cl)ccc23)CC1)c1ccc(F)c(F)c1F [Example 20, N-[1-(7-Chloro-quinolin-4-yl)-piperidin-4-yl]-2,3,4-trifluoro-benzamide] | 1.6 | > 19 | 
12 | O=C(NC1CCN(c2ccnc3cc(Cl)ccc23)CC1)c1ccc([N+](=O)[O-])o1 [Example 26, 5-Nitro-furan-2-carboxylic acid [1-(7-chloro-quinolin-4-yl)-piperidin-4-yl]-amide] | 2 | > 19 | 
